From ChEMBL document CHEMBL1140816, “Syntheses of tetrahydrothiophenes and tetrahydrofurans and studies of their derivatives as melanocortin-4 receptor ligands” (Bioorg Med Chem Lett, 2008) come the findings set out here.

The structures appear in SMILES notation.

Assay [1] concerns the target T1, Melanocortin receptor 4 (Homo sapiens, UniProt P32245). Nature of the assay: Displacement of [125I]NDP-MSH from human MC4R expressed in HEK293 cells. The assay is classed as cell-based.
Assay [2] has as its target T1, Melanocortin receptor 4. Nature of the assay: Antagonist activity at human MC4R assessed as inhibition of alpha MSH-stimulated cAMP release by cell based assay. The assay is classed as functional.
Assay [3] concerns the target T1, Melanocortin receptor 4. Nature of the assay: Binding affinity at human MC4R.
The target in assay [4] is T1, Melanocortin receptor 4. Nature of the assay: Agonist activity at MC4R. The assay is classed as functional.
The target in assay [5] is T1, Melanocortin receptor 4. Nature of the assay: Binding affinity at MC4R.

T1 sequence (P32245 whole entry): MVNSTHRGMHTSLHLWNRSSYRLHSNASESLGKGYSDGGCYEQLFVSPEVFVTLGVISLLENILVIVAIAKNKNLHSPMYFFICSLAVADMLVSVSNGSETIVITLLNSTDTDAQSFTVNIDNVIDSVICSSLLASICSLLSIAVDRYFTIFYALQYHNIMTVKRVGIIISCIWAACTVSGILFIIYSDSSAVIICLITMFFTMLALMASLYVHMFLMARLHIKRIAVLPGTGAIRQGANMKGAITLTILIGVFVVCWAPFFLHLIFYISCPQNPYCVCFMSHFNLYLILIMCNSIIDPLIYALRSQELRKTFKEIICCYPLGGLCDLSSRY

Consider `Cc1ccc(N2CCN(C(=O)[C@@H]3CCO[C@@H]3c3ccc(Cl)cc3)CC2)c([C@@H](N)C(C)C)c1`, for which the Ki (usually the dissociation constant of the complex between target and ligand, obtained from inhibition or displacement) in assay [1] was 590 nM.
In assay [1], `CC(C)[C@H](NC(=O)CCN(C)C)c1cccc(F)c1N1CCN(C(=O)[C@H]2CS(=O)(=O)C[C@@H]2c2ccc(Cl)cc2)CC1` displayed a Ki of 380 nM.
On the same count and under the same terms, the same measure for `CC(C)[C@H](NC(=O)CCN(C)C)c1cccc(F)c1N1CCN(C(=O)C2COCC2c2ccc(Cl)cc2)CC1` (some centres not stated): 40 nM.
With `CC(C)C[C@H](N)c1cc(C(F)(F)F)ccc1N1CCN(C(=O)[C@H]2CSC[C@@H]2c2ccc(Cl)cc2)CC1`, the Ki in assay [1] turned out to be 280 nM.
Take `Cc1ccc(N2CCN(C(=O)[C@@H]3CCO[C@@H]3c3ccc(Cl)cc3)CC2)c([C@@H](NC(=O)CCN(C)C)C(C)C)c1`: affinity in assay [1] was put at a Ki of 120 nM.
In assay [1], `CC(C)C[C@H](NC(=O)CCN(C)C)c1cc(C(F)(F)F)ccc1N1CCN(C(=O)C2COCC2c2ccc(Cl)cc2)CC1` (some centres not stated) had a Ki of 71 nM.
`CC(C)C[C@H](NC(=O)CCN(C)C)c1cc(C(F)(F)F)ccc1N1CCN(C(=O)[C@H]2CCO[C@@H]2c2ccc(Cl)cc2)CC1` returned a Ki in assay [1] of 200 nM. This Ki lies about 2.8-fold higher than the previous one.
Still for that read-out and setting: the same measure for `CC(C)C[C@H](N)c1cc(C(F)(F)F)ccc1N1CCN(C(=O)C2COCC2c2ccc(Cl)cc2)CC1` (some centres not stated): 280 nM; for `CC(C)[C@H](NC(=O)CCN(C)C)c1cccc(F)c1N1CCN(C(=O)[C@@H]2CCO[C@@H]2c2ccc(Cl)cc2)CC1`: 480 nM; for `Cc1ccc(N2CCN(C(=O)[C@H]3CCO[C@@H]3c3ccc(Cl)cc3)CC2)c([C@@H](N)C(C)C)c1`: 410 nM.
On the same count and under the same terms, the same measure for `CC(C)[C@H](N)c1cccc(F)c1N1CCN(C(=O)[C@@H]2CCO[C@@H]2c2ccc(Cl)cc2)CC1`: 2100 nM; for `CC(C)C[C@H](NC(=O)CCN)c1cc(C(F)(F)F)ccc1N1CCN(C(=O)C2CC(=O)OC2c2ccc(Cl)cc2)CC1` (some centres not stated): 110 nM.
On the same count and under the same terms, the same measure for `CC(C)[C@H](NC(=O)CCN(C)C)c1cccc(F)c1N1CCN(C(=O)[C@@H]2CS(=O)(=O)C[C@H]2c2ccc(Cl)cc2)CC1`: 37 nM; for `CC(C)C[C@H](NC(=O)[C@@H](C)N)c1cc(C(F)(F)F)ccc1N1CCN(C(=O)[C@H]2CSC[C@@H]2c2ccc(Cl)cc2)CC1`: 130 nM.
Compound `CC(C)[C@H](NC(=O)CCN(C)C)c1cccc(F)c1N1CCN(C(=O)[C@H]2COC[C@@H]2c2ccc(Cl)cc2)CC1` displayed a Ki in assay [1] of 30 nM.
In assay [1], `CC(C)C[C@H](N)c1cc(C(F)(F)F)ccc1N1CCN(C(=O)[C@H]2CS(=O)(=O)C[C@@H]2c2ccc(Cl)cc2)CC1` showed a Ki of 38 nM. Further, the IC50 – broadly, the concentration that gives 50% inhibition – in assay [2] was 690 nM.
Compound `CC(C)C[C@H](NC(=O)CCN)c1cc(C(F)(F)F)ccc1N1CCN(C(=O)C2C(=O)OCC2c2ccc(Cl)cc2)CC1` (some centres not stated) gave a Ki in assay [1] of 180 nM.
On the same count and under the same terms, next, `CNCCC(=O)N[C@@H](CC(C)C)c1cc(C(F)(F)F)ccc1N1CCN(C(=O)[C@H]2CS(=O)(=O)C[C@@H]2c2ccc(Cl)cc2)CC1`: 190 nM; `CC(C)C[C@H](N)c1cc(C(F)(F)F)ccc1N1CCN(C(=O)C2C(=O)OCC2c2ccc(Cl)cc2)CC1` (some centres not stated): 260 nM.
Same read-out and setting: next, `CC(C)C[C@H](NC(=O)CCN(C)C)c1cc(C(F)(F)F)ccc1N1CCN(C(=O)[C@H]2CSC[C@@H]2c2ccc(Cl)cc2)CC1`: 130 nM.
Still for that read-out and setting: the same measure for `CNCCC(=O)N[C@@H](CC(C)C)c1cc(C(F)(F)F)ccc1N1CCN(C(=O)[C@H]2CSC[C@@H]2c2ccc(Cl)cc2)CC1`: 170 nM; for `CC(C)[C@H](N)c1cccc(F)c1N1CCN(C(=O)C2COCC2c2ccc(Cl)cc2)CC1` (some centres not stated): 790 nM; for `CC(C)C[C@H](NC(=O)[C@@H](C)N)c1cc(C(F)(F)F)ccc1N1CCN(C(=O)[C@H]2CS(=O)(=O)C[C@@H]2c2ccc(Cl)cc2)CC1`: 100 nM.
The compound `CC(C)C[C@H](NC(=O)CCN(C)C)c1cc(C(F)(F)F)ccc1N1CCN(C(=O)[C@H]2C[S+]([O-])C[C@@H]2c2ccc(Cl)cc2)CC1` (some centres not stated) came in with a Ki in assay [1] of 230 nM.
Same read-out and setting: the same measure for `CC(C)[C@H](NC(=O)CCN(C)C)c1cccc(F)c1N1CCN(C(=O)[C@@H]2COC[C@@H]2c2ccc(Cl)cc2)CC1`: 28 nM.
As for `Cc1ccc(N2CCN(C(=O)[C@@H]3OCC[C@@H]3c3ccc(Cl)cc3)CC2)c([C@@H](NC(=O)CCN(C)C)C(C)C)c1`, in assay [1], the affinity corresponds to a Ki of 10 nM. Moreover, the IC50 in assay [2] came out at 530 nM.
For the compound `CC(C)C[C@H](N)c1cc(C(F)(F)F)ccc1N1CCN(C(=O)C(C)(C)Cc2ccc(Cl)cc2)CC1`, the affinity in assay [3] corresponds to a Ki of 810 nM.
In assay [1], `CC(C)C[C@H](NC(=O)CCN(C)C)c1cc(Cl)ccc1N1CCN(C(=O)[C@H]2CCO[C@@H]2c2ccc(Cl)cc2)CC1` returned a Ki of 74 nM.
Same read-out and setting: next, `Cc1ccc(N2CCN(C(=O)[C@H]3OCC[C@@H]3c3ccc(Cl)cc3)CC2)c([C@@H](NC(=O)CCN(C)C)C(C)C)c1`: 43 nM; `CC(C)C[C@H](NC(=O)CCN(C)C)c1cc(C(F)(F)F)ccc1N1CCN(C(=O)C2C(=O)OCC2c2ccc(Cl)cc2)CC1` (some centres not stated): 290 nM; `CC(C)[C@H](N)c1cccc(F)c1N1CCN(C(=O)[C@H]2CCO[C@@H]2c2ccc(Cl)cc2)CC1`: 1100 nM.
The compound `CC(C)C[C@H](NC(=O)CCN(C)C)c1cc(Cl)ccc1N1CCN(C(=O)[C@@H]2CCO[C@@H]2c2ccc(Cl)cc2)CC1` yielded a Ki in assay [1] of 87 nM.
On the same count and under the same terms, the same measure for `CC(C)C[C@H](NC(=O)CCN(C)C)c1cc(C(F)(F)F)ccc1N1CCN(C(=O)[C@H]2CS(=O)(=O)C[C@@H]2c2ccc(Cl)cc2)CC1`: 170 nM; for `CC(C)C[C@H](N)c1cc(C(F)(F)F)ccc1N1CCN(C(=O)[C@H]2C[S+]([O-])C[C@@H]2c2ccc(Cl)cc2)CC1` (some centres not stated): 120 nM; for `CNCC(=O)N[C@@H](CC(C)C)c1cc(C(F)(F)F)ccc1N1CCN(C(=O)[C@H]2CS(=O)(=O)C[C@@H]2c2ccc(Cl)cc2)CC1`: 180 nM.
Take `CC(C)C[C@H](N)c1cc(C(F)(F)F)ccc1N1CCN(C(=O)[C@H]2CCO[C@@H]2c2ccc(Cl)cc2)CC1`: the affinity in assay [1] corresponds to a Ki of 330 nM.
For the compound `CC(C)(C)N1C[C@H](C(=O)N2CCC(CN3CCOC3=O)(C3CCCCC3)CC2)[C@@H](c2ccc(F)cc2F)C1`, the EC50 (commonly the concentration at which the effect is half-maximal) in assay [4] turned out to be 2 nM. In assay [5], this compound gave an IC50 of 14 nM.
As to `CC(C)C[C@H](N)c1cc(Cl)ccc1N1CCN(C(=O)[C@H]2CCO[C@@H]2c2ccc(Cl)cc2)CC1`, the Ki in assay [1] is 280 nM. In other words, the sub-micromolar range.
As to `CNCC(=O)N[C@@H](CC(C)C)c1cc(C(F)(F)F)ccc1N1CCN(C(=O)[C@H]2CSC[C@@H]2c2ccc(Cl)cc2)CC1`, the Ki in assay [1] amounted to 250 nM.
